From patent US20140011773A1, “Pro-drug Compounds” (Proximagen Limited, priority 2012, published 2014)
Counter-ions that a name gives are not always drawn. Like-named read-outs stand apart in the source and are kept apart here.

What was measured:
[1] = Pharmacokinetics: plasma levels after oral dosing to rats; format: in vivo; settings: male, Sprague Dawley, 6.1 mg/kg, rat, 6.10 mg/kg PO, read-out: Plasma level of Example 2
Procedure: (§1) Example prodrugs were dosed either intravenously or orally to fasted male Sprague Dawley rats. The rats underwent surgery for jugular vein cannulation 48 hrs prior to dosing. Following dosing, 0.25 mL blood samples were taken via the cannulae at 0, 5, 10, 20, 30, 45, 60, 120, 240 & 360 minutes in EDTA coated tubes. Tubes were spun at 13,000 rpm for 4 minutes and 100 ul of supernatant taken immediately and stored at −80° C. prior to analysis. Plasma samples were analysed by LC-MS/MS following extraction by protein precipitation, and levels of parent prodrug and tonabersat were measured by MRM (Multiple Reaction Monitoring) analysis against an extracted calibration curve of plasma samples spiked with the Example prodrug and tonabersat.
Example 2 was dosed according to this protocol at 6.10 mg/kg PO. […] Plasma levels of tonabersat were determined to be 63 ng/mL at 5 min and 900 ng/mL at 6 hrs clearly showing conversion of the prodrug to tonabersat over this timecourse following oral dosing.

[2] = Pharmacokinetics: plasma levels after intravenous dosing to rats; format: in vivo; settings: male, Sprague Dawley, rat, 0.95 mg/kg IV, read-out: Plasma level of Example 2
Procedure: as §1
Example 2 was dosed according to this protocol at 0.95 mg/kg IV. […] Plasma levels of tonabersat were determined to be 130 ng/mL at 5 min and 115 ng/mL at 6 hrs clearly showing conversion of the prodrug to tonabersat over this timecourse following intravenous dosing.

high K+ evoked CSD [3] = settings: rats; cited from earlier work
[4] = test system: unique stereo-selective site in rat brains; settings: rat brain; cited from earlier work
high K+ evoked CSD [5] = settings: cats; cited from earlier work
[6] = test system: unique stereo-selective site in human brains; settings: human brain; cited from earlier work

SMILES | concentration at 5 min ([1]; at 5 min) [ng/mL] | concentration at 6 h ([1]; at 6 hrs) [ng/mL] | concentration at 5 min ([2]; at 5 min) [ng/mL] | concentration at 6 h ([2]; at 6 hrs) [ng/mL] | inhibition of high K+ evoked CSD (high K+ evoked CSD [3]) | binding affinity [4] | inhibition of high K+ evoked CSD (high K+ evoked CSD [5]) | binding affinity [6]
CC(=O)c1ccc2c(c1)[C@H](NC(=O)c1ccc(F)c(Cl)c1)[C@H](OC(=O)CN(C)C)C(C)(C)O2 [Example 2, (3S,4S)-6-Acetyl-4-[(3-chloro-4-fluorobenzene)amido]-2,2-dimethyl-3,4-dihydro-2H-1-benzopyran-3-yl 2-(dimethylamino)acetate hydrochloride] | 38 | < 5 | 730 | < 5 | – | – | – | –
CC(=O)c1ccc2c(c1)[C@H](NC(=O)c1ccc(F)c(Cl)c1)[C@H](O)C(C)(C)O2 [Tonabersat] | – | – | – | – | inhibits high K+ evoked CSD | binds selectively and with high affinity | inhibits high K+ evoked CSD | binds selectively and with high affinity
